Data set [1] in a line: Hygroscopicity measurement by DVS apparatus. The class given is physicochemical. Conditions: for Change in Mass (%) Water uptake at 30% RH / Change in Mass (%) Water uptake at 60% RH / Change in Mass (%) Water uptake at 90% RH: DVS, 25° C. Here is the method: In another embodiment, 1:1 Compound (I) tartrate salt is characterized by a hygroscopicity measurement, wherein water uptake is less than 4% (e.g. 2% or 1%) of the mass of the tartrate salt at 90% relative humidity (RH); or less than 2% (e.g. 1% or 0.5%) of the mass of the tartrate salt at 60% RH; or less than 1% (e.g. 0.5% or 0.1%) of the mass of the tartrate salt at 30% RH. The hygroscopicity in different relative humidity (RH) is measured under following conditions: • i) drying between 0.5 and 1.5 mg of the tartrate salt under a nitrogen atmosphere at 0% relative humidity for 2 hours; • ii) increasing or decreasing the relative humidity in steps of 10% from 0% to 90% then to 0%; • iii) maintaining the relative humidity at each step until the mass change compared to the mass of the original tartrate salt per minute is less than 0.01 (%/min), provided that minimum and maximum duration time at each step is 10 minutes and 180 minutes, respectively; and • iv) measuring the mass of the tartrate salt at the desired relative humidity (e.g., 90%, 60%, or 30%) and wherein steps i)-iv) are carried out at 25° C.
The compound to be tested is submitted to hygroscopicity test by means of a DVS apparatus. The testing parameters are in Table 5.

The nature of data set [2]: Solubility in water, SGF and FaSSIF (supernatant by HPLC/UPLC). The class given is physicochemical. Conditions: for Solubility (mg/mL) FaSSIF: fasted state simulated intestinal fluid buffer, target 2 mg/mL; for Solubility (mg/mL) FaSSIF / Solubility (mg/mL) SGF: 24 h at 37° C.; for Solubility (mg/mL) SGF: simulated gastric fluid buffer, target 10 mg/mL; for Solubility (mg/mL) water: stirred 1 h at ambient temperature, analyzed at 24 h. Here is the method: The compounds to be tested were prepared in 3 different media as described below.
Samples prepared in water: approximately 30-40 mg of test material was weighted into a glass vial. 1 mL of water was added. The sample was stirred for 1 h at ambient temperature and the sample was analyzed by HPLC at 24 h.
Samples prepared in simulated gastric fluid (SGF) buffer: approximately 40 mg of test material was weighted into a glass vial. 4 mL of SGF buffer was added to make a target concentration at 10 mg/mL. The sample was stirred for 24 h at 37° C. and the sample was analyzed by HPLC at 24 h.
Samples prepared in fasted state simulated intestinal fluid (FaSSIF) buffer: approximately 8 mg of test material was weighted into a glass vial. 4 mL of FassiF buffer was added to make a target concentration at 2 mg/mL. The sample was stirred for 24 h at 37° C. and the sample was analyzed by HPLC at 24 h.
The samples were stirred for 1 h at ambient temperature or 24 h at 37° C. The samples were then centrifuged and the resulting supernatants were analyzed by HPLC to determine the solubility.

A short description of data set [3]: Pharmacokinetics after single oral dose (powder in capsule), Compound (I) plasma level by LC/MS. The class given is in vivo, male Beagle dogs. Here is the method:
A single dose as powder in capsule of Compound (I), 1:1 Compound (I) mono HCl salt (Batch 3), di-HCl salt of Compound (I), and 1:1 Compound (I) tartrate salt was administrated to male Beagle dogs at either 125 mg/kg or 150 mg/kg. Blood samples were collected for up to 24 h and the plasma was analyzed for Compound (I) plasma level by LC/MS.

A short description of data set [4]: Long term stability under 3 storage conditions (appearance, HPLC purity/impurities, XRPD form). The class given is physicochemical. Conditions: for Purity / Total amount of impurities: HPLC; for Crystalline form: XRPD. Here is the method:
A representative method used for stability evaluation is summarized Table 2.
Purity and stability of 4-amino-5-(6-(4-methylpiperazin-1-yl)-1H-benzo[d]imidazol-2-yl)thieno[2,3-b]pyridin-6(7H)-one (I) tartrate have been tested. Stability samples were prepared and stored under 3 different storage conditions: 2-8° C./ambient RH, 25° C./60% RH, and 40° C./75% RH. Stability samples were removed from their storage conditions within each pull window, and the samples were allowed to equilibrate to ambient conditions prior to analysis. The appearance was evaluated by visual inspection, purity and total amount of impurities were analyzed by HPLC and crystalline form was characterized by XRPD.

Converted amounts (≈) assume the structure as drawn. Counter-ions that a name gives are not always drawn. Like-named read-outs stand apart in the source and are kept apart here.

On to `CN1CCN(c2ccc3nc(-c4c(N)c5ccsc5[nH]c4=O)[nH]c3c2)CC1` [Mono HCl salt (Batch 3)], for which, in data set [1], the “Change in Mass (%) Water uptake at 30% RH” value (shortened to “Change in Mass … at 30% RH”) is given as 3.7%, the “Change in Mass (%) Water uptake at 60% RH” value (from here on “Change in Mass … at 60% RH”) came to 6.1% and the “Change in Mass (%) Water uptake at 90% RH” value (“Change in Mass … at 90% RH” for short) came out at 38.3%. Further, in data set [2] (Batch 3), the “Solubility (mg/mL) FaSSIF” value is listed as 0.22 mg/mL, the “Solubility (mg/mL) SGF” value was 9.0 mg/mL and the “Solubility (mg/mL) water” value was 10.2 mg/mL. In addition, the “AUC0−tlast” value in data set [3] (beagle dogs, oral dose 125 mg/kg, powder in capsule, plasma, up to 24 h, listed as Mono HCl (Batch 3), 125 mg/kg) amounted to 4354 ng·h/mL. The peak concentration (Cmax) (as a rule, the peak of the concentration-time curve) in data set [3] (beagle dogs, oral dose 125 mg/kg, powder in capsule, plasma, listed as Mono HCl (Batch 3), 125 mg/kg) came out at 547 ng/mL.
`CN1CCN(c2ccc3nc(-c4c(N)c5ccsc5[nH]c4=O)[nH]c3c2)CC1` [Free base, 4-amino-5-(6-(4-methylpiperazin-1-yl)-1H-benzo[d]imidazol-2-yl)thieno[2,3-b]pyridin-6(7H)-one]: in data set [1], the “Change in Mass … at 30% RH” value was 0.5%, the “Change in Mass … at 60% RH” value came out at 0.9% and the “Change in Mass … at 90% RH” value was determined as 26%. Also, in data set [2], the “Solubility (mg/mL) FaSSIF” value is on record as 0.09 mg/mL (≈ 237 µM), the “Solubility (mg/mL) SGF” value is 0.5 mg/mL (≈ 1310 µM) and the “Solubility (mg/mL) water” value was 0.3 mg/mL (≈ 788 µM). Further, in data set [3] (beagle dogs, oral dose 125 mg/kg, powder in capsule, plasma, up to 24 h, 125 mg/kg), the “AUC0−tlast” value is 2264 ng·h/mL. For the same compound, the Cmax in data set [3] (male, beagle, dog, plasma, po, 125 mg/kg, beagle dogs, oral dose 125 mg/kg, powder in capsule, plasma, read-out: Cmax) is 301 ng/mL.
Take `CN1CCN(c2ccc3[nH]c(-c4c(N)c5ccsc5[nH]c4=O)nc3c2)CC1` [Di-HCl salt, 4-amino-5-(6-(4-methylpiperazin-1-yl)-1H-benzo[d]imidazol-2-yl)thieno[2,3-b]pydidin-6(7H)-one (I) Di-Hydrochloride]: in data set [2] (Di-Hydrochloride), the “Solubility (mg/mL) water” value is recorded as 3.3 mg/mL. For the same compound, the “AUC0−tlast” value in data set [3] (beagle dogs, oral dose 125 mg/kg, powder in capsule, plasma, up to 24 h, Di-Hydrochloride, 125 mg/kg) is 6862 ng·h/mL. Besides, the highest concentration (Cmax) in data set [3] (beagle dogs, oral dose 125 mg/kg, powder in capsule, plasma, Di-Hydrochloride, 125 mg/kg) was 530 ng/mL.
Regarding `CN1CCN(c2ccc3nc(-c4c(N)c5ccsc5[nH]c4=O)[nH]c3c2)CC1` [Tartrate salt, 4-amino-5-(6-(4-methylpiperazin-1-yl)-1H-benzo[d]imidazol-2-yl)thieno[2,3-b]pyridin-6(7H)-one (I) tartrate], the “Change in Mass … at 30% RH” value in data set [1] is 0.06%. In addition, in data set [1], the “Change in Mass … at 60% RH” value was 0.3%. The “Change in Mass … at 90% RH” value in data set [1] was 0.7%. Further, the “Hygroscopicity (in words)” value in data set [1] (crystalline form, see Example 6) was “non-hygroscopic”. The “Solubility (mg/mL) FaSSIF” value in data set [2] is given as 0.02 mg/mL. The “Solubility in water and in simulated gastric fluids (in words)” value in data set [2] (see Example 7 and Table 7) is reported as “improved solubility”. Besides, in data set [2], the “Solubility (mg/mL) SGF” value is reported as 9.0 mg/mL. Further, the Purity is 100% in data set [4] (5° C./ambient RH, 1 month); 100% in data set [4] (5° C./ambient RH, 3 month); 100% in data set [4] (5° C./ambient RH, 6 month); 100% in data set [4] (5° C./ambient RH, 12 month); 100% in data set [4] (5° C./ambient RH, Initial); 100% in data set [4] (25° C./60% RH, 1 month). The Purity came out at 100% in data set [4] (25° C./60% RH, 3 month); 100% in data set [4] (25° C./60% RH, 6 month); 100% in data set [4] (25° C./60% RH, 12 month); 100% in data set [4] (25° C./60% RH, Initial); 100% in data set [4] (40° C./75% RH, 1 month); 100% in data set [4] (40° C./75% RH, 3 month). Further, the Purity in data set [4] (40° C./75% RH, 6 month) was found to be 100%; in data set [4] (40° C./75% RH, 12 month) it was 100%; in data set [4] (40° C./75% RH, Initial), 100%. The “Total amount of impurities” value in data set [4] (5° C./ambient RH, 1 month) was 0.03%; in data set [4] (5° C./ambient RH, 3 month), 0.0%; in data set [4] (5° C./ambient RH, 6 month) it was 0.03%; in data set [4] (5° C./ambient RH, 12 month), 0.03%; in data set [4] (5° C./ambient RH, Initial), 0.03%; in data set [4] (25° C./60% RH, 1 month) it was 0.02%. In addition, the “Total amount of impurities” value in data set [4] (25° C./60% RH, 3 month) is 0.03%; in data set [4] (25° C./60% RH, 6 month) it was 0.03%; in data set [4] (25° C./60% RH, 12 month) it was 0.03%; in data set [4] (25° C./60% RH, Initial) it was 0.03%; in data set [4] (40° C./75% RH, 1 month), 0.02%; in data set [4] (40° C./75% RH, 3 month), 0.03%. Besides, the “Total amount of impurities” value in data set [4] (40° C./75% RH, 6 month) is given as 0.03%; in data set [4] (40° C./75% RH, 12 month), 0.03%; in data set [4] (40° C./75% RH, Initial), 0.03%. The Crystalline form result is “Yes” in data set [4] (5° C./ambient RH, Initial); “Yes” in data set [4] (25° C./60% RH, Initial); “Yes” in data set [4] (40° C./75% RH, Initial). For the same compound, the “Shelf life (in words)” value in data set [4] (see Example 8) is reported as “extended shelf life”. Moreover, the “Plasma concentrations in dogs following oral administration (in words)” value in data set [3] (compared to the free base and the mono HCl salt) is given as “improved plasma concentrations”. Also, the AUC(0-t) in data set [3] (male, beagle, dog, plasma, po, 150 mg/kg, beagle dogs, oral dose 150 mg/kg, powder in capsule, plasma, up to 24 h, read-out: AUC0−tlast) turned out to be 6550 ng·h/mL. Moreover, the highest concentration (Cmax) in data set [3] (male, beagle, dog, plasma, po, 150 mg/kg, beagle dogs, oral dose 150 mg/kg, powder in capsule, plasma, read-out: Cmax) was 514 ng/mL.

The values above are taken from patent US12624049B2, “Salt and crystal forms of 4-amino-5-(6-(4-methylpiperazin-1-yl)-1H-benzo[d]imidazol-z-yl)thieno[2.3-b]pyridin-6(7H)-one” (UNIVERSITY HEALTH NETWORK, priority 2020, dated 2026).
